Results as given in patent US10561638B2, “Methods for treating dependence” (Biotie Therapies, Inc., priority 2007, dated 2020).

How the values were obtained:
[1] = test system: SHRs; conditions: rat, in vivo
[2] = target: β1 adrenoceptors (Homo sapiens, UniProt P08588); test: Radioligand binding assay
Method: (§1) The activity of nepicastat at twelve selected enzymes and receptors was determined using established assays. Binding data were analyzed by iterative curve-fitting to a four parameter logistic equation. Ki values were calculated from IC50 values using the Cheng-Prusoff equation. Enzyme inhibitory activity was expressed as IC50 (concentration required to produce 50% inhibition of enzyme activity).
(§2) The activity of nepicastat at eleven different enzymes was determined using established assays. The affinity of nepicastat for thirteen selected receptors was determined by radioligand binding assays using standard filtration techniques and membrane preparations. Binding data were analyzed by iterative curve fitting to a four parameter logistic equation. Ki values were calculated using the Cheng-Prusoff equation.

[3] = target: α2B adrenoceptors (Homo sapiens, UniProt P18089); test: Radioligand binding assay
Method: as §1, §2

[4] = target: β2 adrenoceptors (Homo sapiens, UniProt P07550); test: Radioligand binding assay
Method: as §1, §2

[5] = target: α2A adrenoceptors (Homo sapiens, UniProt P08913); test: Radioligand binding assay
Method: as §1, §2

[6] = target: α1B adrenoceptors (Homo sapiens, UniProt P35368); test: Radioligand binding assay
Method: as §1, §2

[7] = target: μ opioid receptors (Homo sapiens, UniProt P35372); test: Radioligand binding assay
Method: as §1, §2

[8] = target: α1A adrenoceptors (Homo sapiens, UniProt P35348); test: Radioligand binding assay
Method: as §1, §2

[9] = test system: blood pressure responses to norepinephrine, isoproterenol and acetylcholine; test: Responses to autonomic agents in anesthetized, instrumented dogs; type: in vivo, beagle dogs; conditions: single intraduodenal dose of 60 mg/kg
Method: Beagle dogs were administered single intraduodenal doses of 0 (vehicle) or 60 mg/kg of nepicastat through an intraduodenal cannula. The vehicle-control group consisted of 1 male and 1 female, and the nepicastat-treatment group consisted of 2 males and 2 females. Each animal was surgically instrumented while anesthetized with isoflurane gas. Before dosing with test formulation, the average blood pressure responses to intravenous doses of autonomic agents, norepinephrine (3 μg/kg), isoproterenol (0.3 μg/kg), and acetylcholine (10 μg/kg), were evaluated. A single bolus dose of test formulation was then administered to each animal and the blood pressure responses to the autonomic agents were evaluated approximately 1, 2, and 3 hours after dosing. At the completion of the experiment, each dog was euthanatized and removed from the study. […]
Systolic, diastolic, and mean aortic blood pressures were evaluated just before administration (baseline) and at the time of peak response to each agent (maximum change from baseline). Systolic, diastolic, and mean aortic blood pressures, and blood pH, PCO2, and PO2 were evaluated before dosing and approximately 50, 110, and 170 minutes after dosing with test formulation. […]

μ opioid receptors, sequence (P35372 whole entry): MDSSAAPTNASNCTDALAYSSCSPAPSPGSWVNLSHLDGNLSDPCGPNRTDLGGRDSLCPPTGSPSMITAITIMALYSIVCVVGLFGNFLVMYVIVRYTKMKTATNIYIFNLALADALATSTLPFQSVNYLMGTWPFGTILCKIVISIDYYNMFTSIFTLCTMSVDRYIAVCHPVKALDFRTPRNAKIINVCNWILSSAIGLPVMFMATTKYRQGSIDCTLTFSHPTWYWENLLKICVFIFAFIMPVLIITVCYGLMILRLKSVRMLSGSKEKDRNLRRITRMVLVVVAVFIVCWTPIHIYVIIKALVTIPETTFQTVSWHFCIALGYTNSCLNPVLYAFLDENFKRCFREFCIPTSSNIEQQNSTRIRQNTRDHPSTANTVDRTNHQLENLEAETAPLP
α2A adrenoceptors, sequence (P08913 whole entry): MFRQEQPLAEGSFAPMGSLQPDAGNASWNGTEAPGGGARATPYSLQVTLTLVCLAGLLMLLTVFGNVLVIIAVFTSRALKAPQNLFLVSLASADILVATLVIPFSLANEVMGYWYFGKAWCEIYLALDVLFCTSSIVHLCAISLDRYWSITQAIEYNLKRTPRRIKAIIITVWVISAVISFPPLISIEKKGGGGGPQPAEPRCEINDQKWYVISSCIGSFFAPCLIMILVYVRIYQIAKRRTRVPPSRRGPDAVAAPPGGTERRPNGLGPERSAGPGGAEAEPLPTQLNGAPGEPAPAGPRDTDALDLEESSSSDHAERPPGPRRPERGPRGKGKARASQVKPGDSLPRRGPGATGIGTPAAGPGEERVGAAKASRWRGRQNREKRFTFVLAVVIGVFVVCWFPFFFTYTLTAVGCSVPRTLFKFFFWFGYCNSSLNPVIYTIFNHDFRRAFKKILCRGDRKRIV
α1A adrenoceptors, sequence (P35348 whole entry): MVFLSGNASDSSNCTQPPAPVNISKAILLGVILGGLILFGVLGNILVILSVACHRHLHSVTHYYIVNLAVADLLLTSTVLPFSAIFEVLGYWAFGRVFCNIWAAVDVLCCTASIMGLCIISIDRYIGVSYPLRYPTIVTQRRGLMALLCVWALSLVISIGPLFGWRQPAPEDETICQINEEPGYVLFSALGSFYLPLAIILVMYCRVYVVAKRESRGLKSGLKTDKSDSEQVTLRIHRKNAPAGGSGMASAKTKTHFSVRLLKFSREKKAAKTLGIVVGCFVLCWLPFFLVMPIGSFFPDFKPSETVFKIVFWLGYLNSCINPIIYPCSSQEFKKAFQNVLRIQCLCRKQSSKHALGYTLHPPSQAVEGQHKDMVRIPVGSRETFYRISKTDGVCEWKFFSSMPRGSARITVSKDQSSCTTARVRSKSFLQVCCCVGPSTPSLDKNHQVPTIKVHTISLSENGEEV
β2 adrenoceptors, sequence (P07550 whole entry): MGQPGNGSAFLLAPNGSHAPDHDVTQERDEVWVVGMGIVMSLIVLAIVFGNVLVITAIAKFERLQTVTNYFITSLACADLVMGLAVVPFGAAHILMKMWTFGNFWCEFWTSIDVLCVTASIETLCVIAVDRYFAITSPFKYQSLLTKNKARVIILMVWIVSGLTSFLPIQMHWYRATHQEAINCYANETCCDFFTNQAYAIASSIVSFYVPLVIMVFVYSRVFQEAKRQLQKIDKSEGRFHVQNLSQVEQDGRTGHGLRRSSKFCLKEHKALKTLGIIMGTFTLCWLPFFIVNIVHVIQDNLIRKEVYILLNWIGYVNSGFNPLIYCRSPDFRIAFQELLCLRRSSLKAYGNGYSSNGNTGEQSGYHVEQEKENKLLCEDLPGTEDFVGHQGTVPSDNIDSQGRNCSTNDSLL
β1 adrenoceptors, sequence (P08588 whole entry): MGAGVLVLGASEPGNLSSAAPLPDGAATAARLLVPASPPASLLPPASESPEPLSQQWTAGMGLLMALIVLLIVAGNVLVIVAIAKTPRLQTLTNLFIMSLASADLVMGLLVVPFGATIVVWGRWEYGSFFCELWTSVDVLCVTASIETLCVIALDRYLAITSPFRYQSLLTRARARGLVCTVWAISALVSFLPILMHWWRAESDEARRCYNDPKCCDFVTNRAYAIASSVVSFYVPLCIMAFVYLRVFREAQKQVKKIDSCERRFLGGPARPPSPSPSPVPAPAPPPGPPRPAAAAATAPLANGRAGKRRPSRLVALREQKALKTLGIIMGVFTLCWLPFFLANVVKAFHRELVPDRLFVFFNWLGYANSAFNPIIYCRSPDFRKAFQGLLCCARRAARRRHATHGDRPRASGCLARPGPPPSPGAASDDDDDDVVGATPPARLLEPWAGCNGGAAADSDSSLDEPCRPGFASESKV
α1B adrenoceptors, sequence (P35368 whole entry): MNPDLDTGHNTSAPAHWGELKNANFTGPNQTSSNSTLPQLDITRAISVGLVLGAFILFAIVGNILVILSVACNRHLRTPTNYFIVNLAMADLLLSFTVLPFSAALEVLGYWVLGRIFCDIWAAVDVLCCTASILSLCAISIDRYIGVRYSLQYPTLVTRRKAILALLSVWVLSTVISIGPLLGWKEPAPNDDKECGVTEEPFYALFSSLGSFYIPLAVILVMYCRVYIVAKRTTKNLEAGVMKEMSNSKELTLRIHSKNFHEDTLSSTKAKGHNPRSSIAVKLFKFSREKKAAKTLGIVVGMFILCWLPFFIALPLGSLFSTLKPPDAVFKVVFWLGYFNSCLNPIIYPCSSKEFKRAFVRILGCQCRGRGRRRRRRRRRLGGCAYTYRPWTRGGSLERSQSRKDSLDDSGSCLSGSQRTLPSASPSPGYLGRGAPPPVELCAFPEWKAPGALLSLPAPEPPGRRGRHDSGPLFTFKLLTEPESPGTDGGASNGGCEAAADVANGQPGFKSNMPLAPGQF
α2B adrenoceptors, sequence (P18089 whole entry): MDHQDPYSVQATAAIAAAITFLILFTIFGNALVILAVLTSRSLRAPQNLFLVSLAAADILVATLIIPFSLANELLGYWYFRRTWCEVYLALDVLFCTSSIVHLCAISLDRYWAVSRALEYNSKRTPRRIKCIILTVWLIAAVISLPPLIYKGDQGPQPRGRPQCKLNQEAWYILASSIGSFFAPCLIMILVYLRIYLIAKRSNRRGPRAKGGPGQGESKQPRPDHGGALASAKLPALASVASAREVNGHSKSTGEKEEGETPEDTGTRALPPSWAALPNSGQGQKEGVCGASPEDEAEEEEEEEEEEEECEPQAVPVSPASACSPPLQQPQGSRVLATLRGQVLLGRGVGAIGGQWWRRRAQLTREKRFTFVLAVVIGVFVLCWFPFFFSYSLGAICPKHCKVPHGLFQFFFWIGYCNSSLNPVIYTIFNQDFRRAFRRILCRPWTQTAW

Cl.NCc1c[nH]c(=S)n1[C@H]1CCc2c(F)cc(F)cc2C1 [nepicastat, (S)-5-Aminomethyl-1-(5,7-difluoro-1,2,3,4-tetrahydronaphth-2-yl)-2,3-dihydro-2-thioxo-1H-imidazole hydrochloride] was tested, and the “motor activity (MA)” value [1] was “unaffected”, the Ki [2] was greater than 10 µM and the Ki [3] was greater than 10 µM. For the same compound, the Ki [4] was greater than 10 µM, the Ki [5] was greater than 10 µM and the Ki [6] was greater than 10 µM. For the same compound, the Ki [7] was greater than 10 µM, the Ki [8] was greater than 10 µM and the “predose vs postdose blood pressure responses to autonomic agents” value [9] was “No treatment-related differences”.
